# Test results reported in article PMC7845544 (Frontiers in Pharmacology, 2021).
# “And” between values parts separate entries of the source, which are not always exact repeats. Equal entries are not always repeated. “Also recorded” adds a separate entry of the source.
# Tests used:
# beagle dogs [1] = assay: 14-day toxicity and toxicokinetics in Beagle dog; format: in vivo
# Experimental: (§1) Male and female beagle dogs were received from Beijing Marshall Biotechnology Co., Ltd (Beijing, China) and group housed at Covance (Shanghai, China), except for 5 h each day in stainless steel cages for study-related procedures. […] Blood samples (approximately 1.0 ml) were collected for thyroid hormone analysis on Days 0, prior to dosing, 24 h post dose (prior to second dose on Day 2) and once prior to dosing on Day 14. Blood was collected into serum separator tubes (without anticoagulant), allowed to clot at room temperature, and centrifuged for approximately 10 min in a refrigerated centrifuge at approximately at 3,500 g within 2 h of collection. Serum was harvested and placed in a freezer for subsequent thyroid hormone measurement.
# immature B6C3F1 mice = assay: Superovulation assay in immature mice; format: in vivo, mouse; conditions: 30 and 100 mg/kg, mice receiving low dose rec-hFSH (0.15 IU)
# Experimental: Immature SD rats and B6C3F1 mice (both 18–21 day old females) were purchased from Charles-River laboratories (Wilmington, MA, United States and Shanghai, China). All animals were treated in accordance to Chempartner (Shanghai, China) or Embryotech (Haverhill, MA, United States) IACUC approved animal protocols. The animals were provided water and food ad libitum and housed under 12 h dark and 12 h light schedules.
# Immature rats and mice were used to investigate the ability of the small molecules to induce follicular development and support ovulation as described elsewhere ([Steelman and Pohley, 1953]) with modifications ([Sriraman et al., 2014]). […] […] The isolated COC’s were treated with hyaluronidase and the total number of ovulated oocytes was determined microscopically.
# […] […] In some experiments, serum was collected from the animals prior to the ovulatory dose of hCG to determine estradiol levels. Plasma concentrations of FSHR-AA were measured during superovulation assays, except for experiments where plasma was collected for estradiol measurements.
# PDE isoforms = assay: Phosphodiesterase (PDE) profile (Eurofins); format: biochemical; conditions: 9 isoforms PDE
# 211 kinases = assay: Kinase profile (Eurofins); format: biochemical
# hERG = hERG (Homo sapiens, UniProt Q12809); assay: hERG channel inhibition (Cyprotex); format: biochemical
# Chain of hERG (Q12809 whole entry): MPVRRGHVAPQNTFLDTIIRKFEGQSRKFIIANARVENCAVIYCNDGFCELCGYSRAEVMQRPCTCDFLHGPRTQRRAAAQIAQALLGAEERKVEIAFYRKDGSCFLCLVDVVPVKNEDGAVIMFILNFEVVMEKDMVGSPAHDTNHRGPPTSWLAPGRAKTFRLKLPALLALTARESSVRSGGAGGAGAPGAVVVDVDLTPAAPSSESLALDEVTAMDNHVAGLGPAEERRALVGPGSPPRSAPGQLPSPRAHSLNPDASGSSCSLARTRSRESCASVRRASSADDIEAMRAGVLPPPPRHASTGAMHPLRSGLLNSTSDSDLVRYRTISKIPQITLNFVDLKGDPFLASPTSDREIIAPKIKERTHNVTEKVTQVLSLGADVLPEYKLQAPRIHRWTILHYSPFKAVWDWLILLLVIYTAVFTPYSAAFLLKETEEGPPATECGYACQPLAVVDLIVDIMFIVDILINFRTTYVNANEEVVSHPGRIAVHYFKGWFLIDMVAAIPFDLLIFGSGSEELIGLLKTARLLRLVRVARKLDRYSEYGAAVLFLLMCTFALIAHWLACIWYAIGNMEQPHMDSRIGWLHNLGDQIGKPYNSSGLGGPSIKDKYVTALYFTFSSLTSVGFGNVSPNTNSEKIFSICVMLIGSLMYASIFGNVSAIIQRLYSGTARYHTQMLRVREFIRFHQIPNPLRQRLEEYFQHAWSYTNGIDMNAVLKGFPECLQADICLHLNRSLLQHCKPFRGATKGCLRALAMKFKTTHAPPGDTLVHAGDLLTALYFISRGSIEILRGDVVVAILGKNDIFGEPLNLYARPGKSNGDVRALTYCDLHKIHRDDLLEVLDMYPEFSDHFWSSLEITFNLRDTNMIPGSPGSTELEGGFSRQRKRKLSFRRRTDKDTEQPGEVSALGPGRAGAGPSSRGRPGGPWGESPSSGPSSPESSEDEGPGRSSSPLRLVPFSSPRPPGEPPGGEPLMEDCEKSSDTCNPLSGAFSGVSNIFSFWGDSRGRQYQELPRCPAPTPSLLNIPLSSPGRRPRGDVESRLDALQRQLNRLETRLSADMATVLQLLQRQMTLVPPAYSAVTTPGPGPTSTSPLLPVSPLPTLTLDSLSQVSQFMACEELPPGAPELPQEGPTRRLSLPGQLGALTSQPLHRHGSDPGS
# Sprague Dawley rats = system: Sprague Dawley rats
# Experimental: Toxicological evaluations were performed in both rat and dog as the second species according to the guidance from FDA. […] The animals were administered vehicle or 30, 100, 300 and 1,000 mg/kg by oral gavage for 14 days. […] Separate groups of animals (n = 6/sex/dose) were used for toxicokinetic (TK) analysis. On day 1 and day 14 of drug administration, serial blood samples were collected from 5 min to 24 h from the TK group animals for analytical measurement of the compound. Blood samples were placed on ice immediately after collection and were centrifuged at approximately 8,000 rpm for 6 min at 2–8°C and the resulting plasma were separated and stored in pre-labeled plastic tubes or vials. The amount of compound in the plasma samples were measure using an HPLC method. […] Evaluated parameters included; mortality, clinical signs, body weight, food consumption, urinalysis, hematology, clinical chemistry, gross post mortem examinations, organ weights and histopathological evaluations of selected tissues. At the end of 14-days of treatment, animals were sacrificed and blood collected for serum chemistry, coagulation and hematological analysis, organ weighed and histological analysis performed in select tissue from control and high dose group.
# Dog pharmacokinetics = format: in vivo; conditions: 10 mg/kg
# NK2 receptor = conditions: dose response
# Monkey pharmacokinetics = format: in vivo; conditions: data not shown
# beagle dogs [2] = assay: Serum thyroid hormones in beagle dogs treated for 14 days; format: in vivo
# Experimental: as §1
# Cl-channel (GABA-gated) = conditions: dose response
# [3] = female dog, 30 mg/Kg, 0h predosing
# [4] = female dog, 100 mg/Kg, 0h predosing
# [5] = female dog, 1000 mg/Kg, 0h predosing
# [6] = male dog, 30 mg/Kg, 0h predosing
# [7] = male dog, 100 mg/Kg, 0h predosing
# [8] = male dog, 1000 mg/Kg, 0h predosing
compound,measurement,setting,value
COc1cc2c(cc1-c1cnn(CCO)c1)-c1c(c(C(=O)N(C)C(C)(C)C)nn1-c1cc(Cl)cc(Cl)c1)CO2 [TOP5300],"mortality or morbidity, dog","beagle dogs [1]; 14 days, up to 1,000 mg/kg",no mortality or morbidity occurred
same,"NOAEL, dog","beagle dogs [1]; dog, in vivo, po","1,000 mg/kg/day"
same,follicular growth and ovulation,immature B6C3F1 mice,dose-dependent increases in follicular growth and ovulation
same,PDE profile @ 10 uM,PDE isoforms,N o si g ni fi cant i nhi bi ti on any
same,Kinase profile @ 10 uM,211 kinases,N o si g ni fi cant i nhi bi ti on any; also recorded: failed to inhibit activity
same,hERG assay result,hERG,inactive
same,hERG channel inhibition @ 10 uM,hERG; 10 uM,16 % inhibition
same,margin of safety between first significant efficacy (5 mg/kg) and NOAEL (300 mg/kg),Sprague Dawley rats; rat,60 fold
same,accumulation after 14-days repeated dosing,"Sprague Dawley rats; rat, in vivo",not observed
same,"NOAEL, female rat","Sprague Dawley rats; rat, in vivo, po",300 mg/kg
same,"NOAEL, male rat","Sprague Dawley rats; rat, in vivo, po","1,000 mg/kg"
same,"Tmax, Day1","Sprague Dawley rats; rat, in vivo, po",2 to 8 h
same,"Tmax, Day14","Sprague Dawley rats; rat, in vivo, po",2 to 8 h
same,"mortality, rat","Sprague Dawley rats; up to 1,000 mg/kg, 14 days",all animals survived the duration of the study
same,Dog PK AUC,Dog pharmacokinetics,"8,719 ng*h/ml"
same,Dog PK T1/2,Dog pharmacokinetics,9 h and 9.4 h
same,Dog PK F%,Dog pharmacokinetics; oral bioavailability,32%
same,"selectivity / safety margin compared to FSHR, NK2(h)",NK2 receptor,over 400 fold
same,"half-life, monkey PK",Monkey pharmacokinetics,12.1 h
same,"TSH, free T3 or free T4 concentrations over the course of treatment","beagle dogs [2]; dog, 14 days",No significant difference
same,"Free T3, fold change over vehicle group",beagle dogs [2]; [3],0.9 fold
same,"Free T4, fold change over vehicle group",beagle dogs [2]; [3],1.1 fold
same,"TSH, fold change over vehicle group",beagle dogs [2]; [3],1.2 fold
same,"Free T3, fold change over vehicle group","beagle dogs [2]; female dog, 30 mg/Kg, 24h",0.8 fold
same,"Free T4, fold change over vehicle group","beagle dogs [2]; female dog, 30 mg/Kg, 24h",1.1 fold
same,"TSH, fold change over vehicle group","beagle dogs [2]; female dog, 30 mg/Kg, 24h",0.9 fold
same,"Free T3, fold change over vehicle group","beagle dogs [2]; female dog, 30 mg/Kg, Day 14",1.0 fold
same,"Free T4, fold change over vehicle group","beagle dogs [2]; female dog, 30 mg/Kg, Day 14",0.8 fold
same,"TSH, fold change over vehicle group","beagle dogs [2]; female dog, 30 mg/Kg, Day 14",1.1 fold
same,"Free T3, fold change over vehicle group",beagle dogs [2]; [4],1.0 fold
same,"Free T4, fold change over vehicle group",beagle dogs [2]; [4],1.2 fold
same,"TSH, fold change over vehicle group",beagle dogs [2]; [4],1.3 fold
same,"Free T3, fold change over vehicle group","beagle dogs [2]; female dog, 100 mg/Kg, 24h",0.9 fold
same,"Free T4, fold change over vehicle group","beagle dogs [2]; female dog, 100 mg/Kg, 24h",1.1 fold
same,"TSH, fold change over vehicle group","beagle dogs [2]; female dog, 100 mg/Kg, 24h",1.0 fold
same,"Free T3, fold change over vehicle group","beagle dogs [2]; female dog, 100 mg/Kg, Day 14",1.1 fold
same,"Free T4, fold change over vehicle group","beagle dogs [2]; female dog, 100 mg/Kg, Day 14",1.1 fold
same,"TSH, fold change over vehicle group","beagle dogs [2]; female dog, 100 mg/Kg, Day 14",1.1 fold
same,"Free T3, fold change over vehicle group",beagle dogs [2]; [5],1.1 fold
same,"Free T4, fold change over vehicle group",beagle dogs [2]; [5],1.0 fold
same,"TSH, fold change over vehicle group",beagle dogs [2]; [5],1.2 fold
same,"Free T3, fold change over vehicle group","beagle dogs [2]; female dog, 1000 mg/Kg, 24h",0.9 fold
same,"Free T4, fold change over vehicle group","beagle dogs [2]; female dog, 1000 mg/Kg, 24h",0.9 fold
same,"TSH, fold change over vehicle group","beagle dogs [2]; female dog, 1000 mg/Kg, 24h",0.8 fold
same,"Free T3, fold change over vehicle group","beagle dogs [2]; female dog, 1000 mg/Kg, Day 14",1.2 fold
same,"Free T4, fold change over vehicle group","beagle dogs [2]; female dog, 1000 mg/Kg, Day 14",0.9 fold
same,"TSH, fold change over vehicle group","beagle dogs [2]; female dog, 1000 mg/Kg, Day 14",0.8 fold
same,"Free T3, fold change over vehicle group",beagle dogs [2]; [6],1.3 fold
same,"Free T4, fold change over vehicle group",beagle dogs [2]; [6],1.0 fold
same,"TSH, fold change over vehicle group",beagle dogs [2]; [6],0.8 fold
same,"Free T3, fold change over vehicle group","beagle dogs [2]; male dog, 30 mg/Kg, 24h",1.3 fold
same,"Free T4, fold change over vehicle group","beagle dogs [2]; male dog, 30 mg/Kg, 24h",1.0 fold
same,"TSH, fold change over vehicle group","beagle dogs [2]; male dog, 30 mg/Kg, 24h",0.9 fold
same,"Free T3, fold change over vehicle group","beagle dogs [2]; male dog, 30 mg/Kg, Day 14",1.3 fold
same,"Free T4, fold change over vehicle group","beagle dogs [2]; male dog, 30 mg/Kg, Day 14",1.0 fold
same,"TSH, fold change over vehicle group","beagle dogs [2]; male dog, 30 mg/Kg, Day 14",1.0 fold
same,"Free T3, fold change over vehicle group",beagle dogs [2]; [7],1.1 fold
same,"Free T4, fold change over vehicle group",beagle dogs [2]; [7],0.9 fold
same,"TSH, fold change over vehicle group",beagle dogs [2]; [7],0.8 fold
same,"Free T3, fold change over vehicle group","beagle dogs [2]; male dog, 100 mg/Kg, 24h",1.1 fold
same,"Free T4, fold change over vehicle group","beagle dogs [2]; male dog, 100 mg/Kg, 24h",0.8 fold
same,"TSH, fold change over vehicle group","beagle dogs [2]; male dog, 100 mg/Kg, 24h",0.9 fold
same,"Free T3, fold change over vehicle group","beagle dogs [2]; male dog, 100 mg/Kg, Day 14",1.1 fold
same,"Free T4, fold change over vehicle group","beagle dogs [2]; male dog, 100 mg/Kg, Day 14",0.9 fold
same,"TSH, fold change over vehicle group","beagle dogs [2]; male dog, 100 mg/Kg, Day 14",1.0 fold
same,"Free T3, fold change over vehicle group",beagle dogs [2]; [8],1.0 fold
same,"Free T4, fold change over vehicle group",beagle dogs [2]; [8],0.9 fold
same,"TSH, fold change over vehicle group",beagle dogs [2]; [8],0.7 fold
same,"Free T3, fold change over vehicle group","beagle dogs [2]; male dog, 1000 mg/Kg, 24h",0.9 fold
same,"Free T4, fold change over vehicle group","beagle dogs [2]; male dog, 1000 mg/Kg, 24h",0.9 fold
same,"TSH, fold change over vehicle group","beagle dogs [2]; male dog, 1000 mg/Kg, 24h",0.9 fold
same,"Free T3, fold change over vehicle group","beagle dogs [2]; male dog, 1000 mg/Kg, Day 14",1.0 fold
same,"Free T4, fold change over vehicle group","beagle dogs [2]; male dog, 1000 mg/Kg, Day 14",1.0 fold
same,"TSH, fold change over vehicle group","beagle dogs [2]; male dog, 1000 mg/Kg, Day 14",0.8 fold
same,"selectivity / safety margin compared to FSHR, Cl-channel (GABA-gated)",Cl-channel (GABA-gated),over 400 fold
